Measured values reported in patent publication US8883504B2, “Cell differentiation suppressing agent, method of culturing cells using the same, culture solution, and cultured cell line” (Asahi Kasei Kabushiki Kaisha, priority 2003, dated 2014).

Tested on: Oct-3/4 gene
Test: Oct-3/4 gene expression level by real time PCR (ES cell differentiation inhibition assay 2)
Format: cell-based, mouse
Details: D3ES cells, 7 days; for expression of Oct-3/4 gene in comparison with ES cells cultured in the medium without the differentiation inhibiting agent: GAPDH internal standard, FIG. 6; for effect of keeping the expression of the Oct-3/4 gene relative to ESGRO: compared with 1,000 units/mL of ESGRO
Method: For the D3ES cells prepared by the method described in (3) preparation of a mouse ES cell of Example 1, 8×10^4 cells were seeded in a 10 cm-diameter cell culture dish coated previously with a 0.1% aqueous gelatin solution to make 10 mL of the ES cell assay medium. 1 mL of the differentiation inhibiting agent A to F, which were dissolved in dimethylsulfoxide (DMSO) or culture medium or their mixture to make 40 μg/mL per each dish, or ESGRO, which was adjusted to make 10^4 unit/mL, was added, and culturing was carried out at 37° C. in 5% […] incubator for 7 days. To the culture medium was added DMSO to make the final concentration 0.1% or lower.
A total RNA was extracted from the ES cells cultured by the method described in (1) ES cell differentiation inhibition assay 2 as described above, by using ISOGEN (K.K. Nippon Gene, Japan made) by the attached method. First, the medium was removed from the dish after the culture, the cells were washed twice with 10 mL of PBS, and dissolved in 1 mL of ISOGENE. After leaving stand at room temperature for 5 minutes, the solution was collected in a 1.5 mL Eppendorf tube. 0.2 mL of chloroform (Wako Pure Chemical Industries made) was added, shaken for 15 seconds and, then, left stand at room temperature for 2 or 3 minutes. The solution was centrifuged at 4° C. at 10000 rpm for 10 minutes by using a micro centrifuge (TOMY SEIKO Corp. made). 400 μL of the supernatant was transferred to a fresh 1.5 mL Eppendorf tube, 500 μL of isopropanol (Wako Pure, Chemical Industries made) was added, and left stand at room temperature for 10 minutes, and, then, centrifuged at 4° C. at 10000 rpm for 10 minutes by using the micro centrifuge. After the supernatant was removed, 1 mL of a 70% aqueous ethanol solution was added followed by shaking and, then, centrifugation was carried out at 4° C. at 10000 rpm for about 5 minutes by using, the micro centrifuge. After the supernatant was removed, a precipitation was dried and dissolved in 30 μL of distilled water to obtain the total RNA solution.
2 μg of the thus obtained total RNA was used as a template to synthesize a cDNA according to the attached protocol by using Deoxyribonuclease I (Amplification Grade)(Invitrogen Corp. made), Oligo(dT) 12-18 primer (Invitrogen Corp. made, 18418-012) and Omniscript reverse transcriptase (QIAGEN Corp, made). Thus, a reaction solution was prepared by adding 1 μL of 10× DNaseI Reaction Buffer, 1 μL of 10× DNaseI (all were made by Invitrogen Corp.) and distilled water to 2 μg of total RNA to make 10 μL in total, and the mixture was incubated at room temperature for 10 minutes. 1 μL of 25 mM EDTA solution was added and heated at 65° C. for 10 minutes. The mixture was cooled to room temperature, and then, 2 μL of 10× Buffer RT, 2 μL of 5 mM dNTP Mix, 2 μL of Oligo(dT) 12-18 primer, 0.25 μL of RNaseOUT (Invitrogen Corp. made, 10777-019) and 1 μL of Omniscript Reverse Transcriptase were added, and RNase-free purified water was added to give the total volume of 20 μL, and the mixture was incubated at 37° C. for 60 minutes to obtain cDNA solution. A portion of the synthesized cDNA obtained in such the way was diluted 5 folds with distilled water, and 2 μL of the solution was used as the template to conduct PCR by using Light Cycler-Fast Start DNA Master SYBR Green I Kit (Roche Diagnostics Corp. made) according to the attached protocol. The expression levels of the Oct-3/4 gene and glyceraldehyde-3-phosphate dehydrogenase (GAPDH) gene as the internal standard were measured. For amplifying the Oct-3/4 gene, sense primer OCT3 up (SEQ ID No.: 1) and antisense primer Oct3 down (SEQ ID No.: 2) were used, and for amplifying the GAPDH gene, sense primer GAPDH up (SEQ ID No.: 3) and antisense primer GAPDH down (SEQ ID No.: 4) were used. The composition of the PCR reaction solution and the reaction condition will be each presented below.

Row | Compound | expression of Oct-3/4 gene in comparison with ES cells cultured in the medium without the differentiation inhibiting agent | effect of keeping the expression of the Oct-3/4 gene relative to ESGRO
1 | CC1(C)Cc2ccccc2C(=C(N=Nc2cccc(Cl)c2)C(N)=O)N1 [C, 2-(3-chloro-phenylazo)-2-(3,3-dimethyl-3,4-dihydro-2H-isoquinoline-1-ylidene)-acetamide] | maintained the expression of the Oct-3/4 gene | 
2 | CC1(C)Cc2ccccc2C(=C(N=Nc2cccc([N+](=O)[O-])c2)C(N)=O)N1 [E, 2-(3,3-dimethyl-3,4-dihydro-2H-isoquinoline-1-ylidene)-2-(3-nitro-phenylazo)-acetamide] | maintained the expression of the Oct-3/4 gene | 
3 | COc1ccc(N=NC(C(N)=O)=C2NC(C)(C)Cc3ccccc32)cc1 [F, 2-(3,3-dimethyl-3,4-dihydro-2H-isoquinoline-1-ylidene)-2-(4-methoxy-phenylazo)-acetamide] | significantly promoted | comparable with 1,000 units/mL of ESGRO
4 | CC(=O)c1ccc(/N=N/C(C(N)=O)=C2/NC(C)(C)Cc3ccccc32)cc1 [compound B, 2-(4-acetyl-phenylazo)-2-(3,3-dimethyl-3,4-dihydro-2H-isoquinoline-1-ylidene)-acetamide] | significantly promoted | comparable with 1,000 units/mL of ESGRO
